The source of these data is PMC12751014, “Non-Catalytic Inhibitors of the p38/MK2 Interface: Repurposing Approved Drugs to Target Neuroinflammation in Alzheimer’s Disease” (Journal of Medicinal Chemistry, 2025).

“Also recorded” adds a separate entry of the source. Where no end group is shown, it is not given here.

For assay [1], the target named is T1, p38/MK2 interaction (Homo sapiens, UniProt Q16539). Put plainly: TR-FRET ultra-high-throughput screening (uHTS), 1536-well, HEK293T lysate VF-p38α / GST-MK2. Format: binding. On the set-up: inhibition of p38/MK2 interaction, primary screen: concentration or dose not given beside the values. To be noted: for inhibition of p38/MK2 interaction, primary screen: relative to DMSO control, 1536-well.
T1 sequence (Q16539 whole entry): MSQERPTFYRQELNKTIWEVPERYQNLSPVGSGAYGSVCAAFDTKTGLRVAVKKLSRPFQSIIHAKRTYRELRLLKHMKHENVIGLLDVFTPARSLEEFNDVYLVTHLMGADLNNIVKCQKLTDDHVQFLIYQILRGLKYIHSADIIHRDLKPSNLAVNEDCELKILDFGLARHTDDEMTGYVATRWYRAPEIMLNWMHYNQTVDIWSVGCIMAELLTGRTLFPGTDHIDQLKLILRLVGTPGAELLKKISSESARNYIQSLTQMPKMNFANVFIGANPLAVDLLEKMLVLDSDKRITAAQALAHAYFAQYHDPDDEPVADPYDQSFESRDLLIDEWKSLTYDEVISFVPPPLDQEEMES

Assay [2] has as its target VF-tagged p38 / His-tagged MK2 346–400 docking peptide (Homo sapiens, UniProt Q16539). Put plainly: Cell lysate-based TR-FRET competition assay, VF-p38 / His-MK2 346–400 docking peptide. The following applies: HEK293T lysate TR-FRET; read-out: IC50, binding of His-MK2 346–400 docking peptide to VF-p38. A general note: TR-FRET usually uses a lanthanide donor and a delayed reading to cut background.

Assay [3] relates to HMC3 microglial cells. The assay is described as follows: qRT-PCR of LPS-induced cytokine expression in HMC3 microglial cells. Format: cell-based, human. The following applies: HMC3, 5 μM compound 1 h before 100 ng/mL LPS 4 h. On the procedure: HMC3 cells were treated with 100 ng/mL E. coli LPS (Sigma-Aldrich, catalog no. L4005) for 4 h in DMEM media. […] Following pretreatment, iMGLs were challenged with 100 ng/mL LPS and 20 ng/mL interferon-γ (IFN-γ) for 24 h to induce an inflammatory response. At the end of the stimulation, cell lysates were collected for qPCR analysis of TNF-α […] gene expression. Total RNA isolation from cell samples was conducted using the RNeasy Plus kit (Qiagen, catalog no. 74134) according to manufacturer instructions and treated with DNase I (Invitrogen, catalog no. 18068-015). Extracted RNA was quantified using the Nanodrop One Spectrophotometer (Thermo Scientific) and then reverse-transcribed into cDNA in equal quantity (<1000 ng/reaction) with the SuperScript III System (Invitrogen, catalog no. 18080-051) following manufacturer directions. cDNA sample was treated with RNase H (Invitrogen, catalog no. 18021014) and diluted to 4 ng/μL equivalent of the starting total RNA. qPCR was performed in 96-well PCR plates (BioRad, catalog no. HSP9601) using the Realplex4Mastercycler (Eppendorf). Each reaction well combines 5 μL cDNA sample, 10 μL 2X SYBR Green Supermix (BioRad, catalog no. 1725271), 1 μL 5 μM primer mix for each target gene, and nuclease-free water up to 20 μL. […] The primer sequences used were: TNFα forward [NT], reverse [NT]-6 forward [NT], reverse [NT]-1β forward [NT], reverse [NT] Each gene was expression-normalized against the housekeeping gene GAPDH with the primer sequences: forward [NT], reverse [NT] Primers were obtained from Integrated DNA Technologies in lyophilized form. The cycler program was set to denaturation at 95 °C for 15 s, followed by annealing and extension at 60 °C for 60 s, repeated for 40 PCR cycles. Melting curve analyses were performed for each sample to ensure primer specificity. The experiment was performed in biological quadruplicates and technical quadruplicates.
For orientation: Quantitative PCR measures a nucleic acid by following its amplification.

Assay [4] concerns the target T1, p38/MK2 interaction. The assay is described as follows: TR-FRET assay with purified recombinant His-p38 and GST-MK2. To be noted: for IC50: purified His-p38 and GST-MK2, read-out: IC50, inhibition of p38/MK2 PPI (TR-FRET, recombinant purified proteins). It is filed as binding. On the procedure:
ENSG00000112062, UniProt ID: Q16539-1) was cloned into a pMCSG7 vector and transformed into Escherichia coli strain BL21(DE3). […] The resuspended cells were lysed through sonication. The lysate was centrifuged for 20 min at 70,000g at 4 °C and the clarified supernatant was passed through a gravity column containing 2 mL Ni-NTA resin pre-equilibrated with equilibration buffer. The resin was then washed with 25 column volumes of equilibration buffer supplemented with 40 mM imidazole, and the protein was eluted with equilibration buffer supplemented with 200 mM imidazole. […] The purity of the enzyme was verified by sodium dodecyl sulfate-polyacrylamide gel electrophoresis (SDS-PAGE) with Coomassie staining, aliquots flash frozen in liquid nitrogen, and stored at -80 °C.

The target in assay [5] is T1, p38/MK2 interaction. Put plainly: Cell lysate-based TR-FRET (VF-p38 / GST-MK2, HEK293T lysate), dose-response. Format: binding. The following applies: read-out: IC50, p38/MK2 PPI, cell lysate-based TR-FRET.
Assay [6] addresses recombinant His-tagged p38 (Homo sapiens, UniProt Q16539).
The target of assay [7] is p38α. To be noted: systematic kinase profiling; reference number not given; read-out: K d for p38α; cited from earlier work.
In assay [8] the test system is human iPSC-derived microglia (iMGL). The assay is described as follows: qRT-PCR of LPS/IFNγ-induced TNF-α expression in iPSC-derived microglia (iMGL). Format: cell-based. To be noted: 5 μM compound 1 h before LPS/IFN-γ 24 h.
The target of assay [9] is T2, endogenous p38/MK2 complex (Homo sapiens, UniProt Q16539).
T2 construct: endogenous in cells; host or cells: HMC3 (ATCC CRL-3304)
T2 sequence (Q16539 whole entry, one chain of several): as the sequence (Q16539 whole entry) above
The assay is described as follows: Co-immunoprecipitation of endogenous p38/MK2 complex in HMC3 cells. Format: cell-based. To be noted: HMC3 cell lysate. On the procedure:
HMC3 cells were lysed with 1% NP-40 lysis buffer, as described above. Clear cell lysate was incubated with equilibrated MK2-Trap Agarose beads (ChromoTek, catalog no. mta-20) or Binding Control Agarose Beads (Chromotek, catalog no. bab-20) and compounds or DMSO at 4 °C for 2 h. Immunoprecipitates were washed three times with 1% NP-40 lysis buffer. Samples were boiled in 1X SDS-PAGE sample buffer (BioRad, catalog no. 1610747) for 5 min before analysis by Western blotting.
Proteins in each sample were separated by SDS-PAGE at 200 V for 40 min using 12.5% acrylamide gels. Transfer to nitrocellulose membranes was completed using the Trans-Blot Turbo Transfer System (BioRad) in TBT buffer (BioRad, catalog no. 10026938). Thirty min incubation in 5% nonfat dry milk (BioRad, catalog no. 170–6404) in TBST buffer (20 mM Tris-base, 150 mM NaCl, and 0.05% Tween 20) at room temperature was used to block membranes. p38α MAPK mouse mAb (Cell Signaling Technology, catalog no. 9217) was used to blot the membrane at 4 °C overnight. […] The wash step was repeated, and the blot was imaged with a ChemiDoc imaging system (BioRad). The SuperSignal West Pico PLUS Chemiluminescent Substrate (Thermo Scientific, catalog no. 34580) was used for developing membranes. Blotting of MK2 was then started with the removal of p38α antibodies using a striping buffer (Thermal Scientific, catalog no. 46430). […]

Assay [10] has as its system p38α. To be noted: systematic kinase profiling; reference number not given; read-out: IC50, inhibition of p38α catalysis; cited from earlier work.
Assay [11] has as its target T3, His-tagged p38α (MAPK14), purified recombinant (human, UniProt Q16539-1 1-360).
T3 construct: also called His-p38; His-p38α; source: E. coli BL21(DE3), purified (Ni-NTA, S200 size exclusion), in-house; or bought: Abcam AB271606; for the FP assay obtained from research collaborators
The assay is described as follows: FRET or BRET; TR-FRET with purified His-p38α (10 nM) and GST-MK2 (1 uM), anti-His-d2 and anti-GST-Tb antibodies; 20 mM Tris-HCl pH 7.0, 50 mM NaCl, 0.01% NP-40; room temperature, 2 h; peptides or compounds added as competitors. To be noted: both partners purified. Background: In BRET a luciferase serves as donor, and the signal depends on an acceptor being close.

Assay [12] has as its target T3, His-tagged p38α (MAPK14), purified …. The assay is described as follows: fluorescence polarisation; 10 nM FITC-MK2 peptide with His-p38α serially diluted 2-fold from a 5 uM working solution; 20 mM Tris-HCl pH 7.0, 50 mM NaCl, 0.01% NP-40; 384-well plate. To be noted: both partners purified.

Sequence of VF-tagged p38 / His-tagged MK2 346–400 docking peptide (Q16539 whole entry): as above
T3 sequence (Q16539 whole entry): as above
Sequence of recombinant His-tagged p38 (Q16539 whole entry): as above

With `COc1cc2nc(N3CCN(C(=O)C4COc5ccccc5O4)CC3)nc(N)c2cc1OC` (stereo not shown) [doxazosin], the “inhibition of p38/MK2 interaction, primary screen” value (“inhibition of p38/MK2 interaction” below) in assay [1] is on record as 58%. The IC50 in assay [2] was 4.6 µM; in assay [4], 4.4 µM; in [5], 30.1 µM. For the same molecule, the “LPS-induced TNF-α, IL-6, and IL-1β expression” value (“LPS-induced TNF-α” below) in [3] is recorded as “significantly (p-values <0.05) suppressed”.
With `Cc1cn(-c2cc(NC(=O)c3ccc(C)c(Nc4nccc(-c5cccnc5)n4)c3)cc(C(F)(F)F)c2)cn1` [Nilotinib, 4-methyl-N-[3-(4-methylimidazol-1-yl)-5-(trifluoromethyl)phenyl]-3-[(4-pyridin-3-ylpyrimidin-2-yl)amino]benzamide], the “ΔT max (thermal stabilization)” value in assay [6] turned out to be 8.22 °C. The Kd in assay [7] was 100 nM. The “inhibition of p38/MK2 interaction” value in [1] is reported as at least 50%. Also, in assay [1] (uHTS TR-FRET signal, Emory Enriched Library), the Pct of control is given as 8.91 Pct of control. The “LPS/IFNγ-induced TNF-α expression” value in [8] is “suppresses; also recorded: suppression”. Also, in assay [3], the “LPS-induced TNF-α” value is on record as “significantly (p-value <0.05) suppresses; also recorded: significantly reduced”. Also, in assay [4] (side-by-side TR-FRET, 2h incubation), the “maximal inhibition of p38/MK2 PPI” value is about 75%. The “endogenous p38/MK2 complex formation (co-IP)” value is listed as “disrupts the endogenous p38/MK2 complex” in assay [9] and “decreased p38/MK2 complex formation” in assay [9] (listed as nilotinib). Moreover, the IC50 in assay [10] is about 2200 nM.
As for `COc1cc2nc(N3CCN(C(=O)C4CCCO4)CC3)nc(N)c2cc1OC` (stereo not shown) [terazosin], the “inhibition of p38/MK2 interaction” value in [1] is given as 77%. Further, the IC50 was determined as 8.3 µM in assay [2], 6.2 µM in assay [4] and 10.5 µM in [5]. The “LPS-induced TNF-α” value in assay [3] was “significantly (p-values <0.05) suppressed”.
In the case of `COc1cc2nc(N(C)CCCNC(=O)C3CCCO3)nc(N)c2cc1OC` (stereo not shown) [alfuzosin], in assay [1], the “inhibition of p38/MK2 interaction” value is on record as 82%. Also, the IC50 in [2] was determined as 14.4 µM; in [4], 6.9 µM; in assay [5], 10 µM. For the same molecule, in assay [3], the “LPS-induced TNF-α” value is “significantly (p-values <0.05) suppressed”.

B1: FITC-MK2 370–393 peptide (peptide, UniProt P49137 370-393, looked up)
peptide: IKIKKIEDASNPLLLKRRKKARAL
modifications: not fully specified (N-terminus); also: FITC label (position not given here)
notes: MK2 (MAPKAPK2) C-terminal docking motif, residues 370-393 (I370-L393); the methods name the peptide 370-390; also called I370–L393; FITC conjugated MK2 370–390 peptide (methods); source: synthetic peptide, bought: GenScript
For the molecule B1, the IC50 in [11] worked out at 420 nM. In addition, the concentration for a half-maximal effect (EC50) (as a rule, the concentration giving half of the maximal effect) in assay [12] is 26.9 nM.

B2: FITC-MK2 369–382 peptide (peptide, UniProt P49137 369-382, looked up)
peptide: QIKIKKIEDASNPL
modifications: not fully specified (N-terminus); also: FITC label (position not given here)
notes: MK2 (MAPKAPK2) C-terminal docking motif, residues 369-382 as named in the text; 369-382 would be 14 residues; the legend's I370-L382 is 13 residues; also called I370-L382; truncated 13-residue peptide
With B2, in assay [11], the IC50 was found to be 4260 nM.
